How the values were obtained:
SNI mice = test: Hargreaves' plantar test, thermal allodynia in SNI mice; type: in vivo
Experimental: For i.n. administration, mice were slightly anesthetized by 2% isoflurane inhalation and placed in a supine position [30]. A 5 μl aliquot of solution (treatments or vehicle) was slowly dropped alternatively to each nostril with a micropipette tip.
Behavioral testing was performed before surgery to establish a baseline for comparison with post-surgical values.
Thermal nociceptive threshold was measured using Hargreaves’ device, as described [33]. Nociceptive response for thermal sensitivity was expressed as thermal paw withdrawal latency in seconds. All determinations were averaged for each animal.

[1] = system: MAPK p38 (phosphorylated); test: Western blot of lumbar spinal cord, p-p38; type: in vivo, mice; conditions: SNI ipsilateral side, day 7 and 14
Experimental: (§1) The lumbar spinal cord was removed 7 and 14 days after surgery and 90 min after the intranasal administration of SUM52, corresponding to the peack of the effect. Samples (n = 4 for groups) were homogenized in a homogenization buffer and processed as previously described. Protein samples (40 µg of protein/sample) were separated on 10% SDS-PAGE and transferred onto nitrocellulose membranes (120 min at 100 V) using standard procedures. Membranes were blocked in PBST (PBS containing 0.1% Tween) containing 5% nonfat dry milk for 120 min. […] Blots were then extensively washed and developed using enhanced chemiluminescence detection system (Pierce, Milan, Italy) and signal intensity (pixels/mm^2) quantified (ImageJ, NIH). […] For each sample, the signal intensity was normalized to that of total protein stained by Ponceau S and the acquired images were quantified using Image Lab software. […]

naïve mice = test: Hot plate test, acute thermal pain in naïve mice; type: in vivo
Excerpt: Mice were randomly assigned to each treatment group. To evaluate the pharmacological profile of SUM35 (N-hydroxy-6-(1-methyl-6-phenyl-4H-benzo[f][1,2,4]triazolo[4,3-a][1,4]diazepin-8-yl)hex-5-ynamide), SUM52 ((S)-N-hydroxy-7-(2-(1-methyl-6-phenyl-4H-benzo[f][1,2,4]triazolo[4,3-a][1,4]diazepin-4-yl)acetamido)heptanamide) (Fig. 1F), synthesized in the laboratory of Prof. Maria Novella Romanelli, iBET762 (molibresib; (4S)-6-(4-Chlorophenyl)-N-ethyl-8-methoxy-1-methyl-4H-[1,2,4]triazolo[4,3,a][1,4] benzodiazepine-4-acetamide, and SAHA (vorinostat; suberoylanilide hydroxamic acid) (Sigma-Aldrich, Italy) were administered 15 min before the tests. Drugs were dissolved in 5% DMSO. Drug concentrations were prepared in such a way that the necessary dose could be administered in a volume of 10 µl per mouse by intranasal (i.n.) administration. The experimental protocol to test the effect of treatments on behavioral and in vitro tests included 3 control groups: untreated, vehicle (5% DMSO), and saline. A representative figure of the experimental protocol in naïve (C) and SNI (F) mice has been inserted in Supplementary Fig. 1.
For i.n. administration, mice were slightly anesthetized by 2% isoflurane inhalation and placed in a supine position. A 5 μl aliquot of solution (treatments or vehicle) was slowly dropped alternatively to each nostril with a micropipette tip.
Animals were habituated to the testing environment daily for at least 2 days before baseline testing. To evaluate onset and progression of pain hypersensitivity, neuropathic mice were monitored by measuring nociceptive responses every 30 min for 3 h before surgery or 3, 7, 10, and 14 days after nerve surgery. Experiments were performed on post-surgery day 7 and 14 when the pain hypersensitivity was well established. Each mouse served as its own control, the responses being measured both before and after surgery. All testing was performed with a blind procedure.

IL-6 = test: Western blot of lumbar spinal cord, IL-6; type: in vivo, mice; conditions: SNI ipsilateral side, day 7 and 14
Experimental: as §1

[2] = system: p65 subunit of NF-kB (phosphorylated); test: Western blot of lumbar spinal cord, p-NF-kB p65; type: in vivo, mice; conditions: SNI ipsilateral side, day 7 and 14
Experimental: as §1

[3] = molecular target: T1, Recombinant Human Bromodomain containing protein 4, bromodomain 2 (BRD4-BD2) (Homo sapiens, UniProt O60885); test: AlphaScreen bromodomain binding assay (Reaction Biology), BRD4-2
T1 construct: purchased Reaction Biology (RBC) RD-11–141; host or cells: E. coli
Experimental: The reader assay is a binding assay using AlphaScreen technology […] assay and was performed by Reaction Biology (www.reactionbiology.com). The biotinylated peptide binding to the reader domain of His-tagged protein is monitored by the singlet oxygen transfer from the Streptavidin-coated donor beads to the AlphaScreen Ni-chelate acceptor beads.
Reaction buffer: 50 mM Hepes, pH7.5, 100 mM NaCl, 0.05% CHAPS, 0.1% BSA, and 1% DMSO (the final DMSO concentration may differ depending on compound stock and test concentrations).
Bromodomain: BRD4-1: RBC Cat# RD-11–140: Recombinant Human Bromodomain containing protein 4, bromodomain 1 (aa 44–170; Genbank Accession # NM_058243), expressed in E. coli with N-terminal His-tag. MW = 17.8 kDa; BRD4-2: RBC Cat# RD-11–141: Recombinant Human Bromodomain containing protein 4, bromodomain 2 (aa 349–460;Genbank Accession # NM_058243), expressed in E. coli with N-terminal His-tag. MW = 15.7 kDa. Ligand (C-term-Biotin): Histone H4 peptide (1–21) K5/8/12/16Ac-Biotin. Detection beads: PerkinElmer: Donor beads: Streptavidin-coated donor beads; Acceptor beads: AlphaScreen Ni acceptor beads.
Reaction procedure: • Deliver 2.5X BRD in wells of reaction plate except No BRD control wells. Add buffer instead. • Deliver compounds in 100% DMSO into the BRD mixture by Acoustic technology (Echo550; nanoliter range). Spin down and pre-incubation for 30 min. • Deliver 5X Ligand. Spin and shake. • Incubate for 30 min at room temperature with gentle shaking. • Deliver 5X donor beads. Spin and shake. • Deliver 5X acceptor beads. Spin and shake. Then gentle shaking in the dark for 60 min. • Alpha measurement (Ex/Em = 680/520–620 nm) in Enspire.

`Cc1nnc2n1-c1ccccc1C(c1ccccc1)=N[C@H]2CC(=O)NCCCCCCC(=O)NO` [SUM52, (S)-N-hydroxy-7-(2-(1-methyl-6-phenyl-4H-benzo[f][1,2,4]triazolo[4,3-a][1,4]diazepin-4-yl)acetamido)heptanamide] was tested, and the “thermal antiallodynic activity, ipsilateral side” value (“thermal antiallodynic activity” for short) (SNI mice; 10 µM i.n., 90 min) was “ineffective”, the “thermal antiallodynic activity” value (SNI mice; 50 µM i.n., vs before treatment values) was “attenuated the SNI-induced pain hypersensitivity” and the “thermal antiallodynic activity” value (SNI mice; 75 µM i.n., vs before treatment values) was “attenuated the SNI-induced pain hypersensitivity”. The “thermal antiallodynic activity” value (SNI mice; 100 µM i.n.) was “the effect was significantly reduced”, the “duration of effect on thermal allodynia compared with SUM35” value (SNI mice; SUM52 50 µM vs SUM35 100 µM) was “more prolonged affect” and the “efficacy in attenuating thermal allodynia compared with SUM35” value (SNI mice; SUM52 50 µM vs SUM35 100 µM, normalized to control group, day 7 and 14) was “comparable efficacy”. For the same molecule, the “thermal analgesic effect in the contralateral side” value (SNI mice; contralateral (uninjured) side of SNI mice) was “absence”, the “thermal antiallodynic efficacy compared with SAHA + iBET762 combination” value (SNI mice; time-course comparison, combination i-BET762 10 µg, SAHA 3 µg) was “comparable efficacy” and the “phosphorylation of MAPK p38” value [1] was “drastically reduced”. The “thermal antinociceptive effect (hot plate)” value (naïve mice; 5 µM i.n., 90 min after administration) was “ineffective”, the “thermal antinociceptive effect (hot plate)” value (naïve mice; 50 µM i.n., 90 min after administration) was “trend toward an increase in the pain threshold” and the “time at which the antinociceptive effect disappeared (hot plate)” value (naïve mice; 100 µM i.n.) was 120 min. For the same molecule, the “time of peak of antinociceptive activity (hot plate)” value (naïve mice; 100 µM i.n.) was 90 min, the “thermal antinociceptive effect (hot plate)” value (naïve mice; 100 µM i.n., normalized to control, compared to SUM35 100 µM) was “significant analgesic effect” and the “thermal antinociceptive effect (hot plate), whole dose range” value (naïve mice; 5 to 500 µM i.n.) was “showed thermal antinociceptive effects”. For the same molecule, the “thermal antinociceptive effect (hot plate)” value (naïve mice; doses higher than 100 µM (up to 500 µM) i.n.) was “progressive reduction of efficacy”, the IL-6 expression (IL-6) was “drastically reduced” and the “phosphorylation of the p65 subunit of NF-kB” value [2] was “robustly reduced by SUM52 up to baseline values”. The IC50 [3] was 10.5 nM and the “preference between BRD4-BD1 and BRD4-BD2 domains” value ([3]; BRD4-BD1 vs BRD4-BD2) was “preferential interaction for BRD4-BD2”.
